# Results published in patent US11911396B2, “Use of compound in preparation of drug for treating cerebral small vessel disease” (GUANGZHOU CELLPROTEK PHARMACEUTICAL CO., LTD, priority 2017, dated 2024).
# Key:
# [1] = test system: Iba-1; test: Iba-1 immunohistochemical staining of prefrontal cortex brain tissue, acute hypobaric hypoxia model; format: in vivo, cynomolgus monkeys
# Description: FIG. 2. Activation of microglia in the brain tissue of the prefrontal cortex of cynomolgus monkeys. A. Iba-1 immunohistochemical staining of the brain tissue of the prefrontal cortex of cynomolgus monkeys, Iba-1 serves as a marker for microglia activation. The black scale bar is 25 μm and the red scale bar is 200 μm. B. Statistics of Iba-1 relative optical density values. Image pro plus software was used to perform optical density scanning on the immunohistochemical images of each group to obtain the optical density values, which were then normalized with the NN group. NN: Normobaric Normoxia group (n=4); HH: Hypobaric Hypoxia group (n=4); HH+Triol: Hypobaric Hypoxia with Triol administration group (n=3); HH+PROG: Hypobaric Hypoxia with control drug administration group (n=4). […]
# The experiment was carried out according to routine immunohistochemical procedures, as follows: the thickness of paraffin sections of prefrontal cortex tissue of cynomolgus monkeys was 5 μm, and fresh paraffin sections were baked overnight at 37° C. […] Imaging: Nikon ECLIPSE Ti-U inverted fluorescence microscope was used to take pictures of the sections in the bright field, by adjusting the appropriate exposure intensity and background white balance, and fixing the shooting adjustments to take pictures of each group of slices from multiple views and by multiples folds. […]
# [2] = test system: CD163; test: Immunofluorescence of CD163 in prefrontal cortex brain tissue, acute hypobaric hypoxia model; format: in vivo, cynomolgus monkeys; conditions: FIGS. 5A and 5B
# Description: FIG. 5. […] A. Immunofluorescence imaging of CD163 and Iba-1 in the brain tissue of cynomolgus monkeys. B. Statistics of relative fluorescence intensity of CD163 and Iba-1. C. Correlation analysis of relative fluorescence intensity of CD163 and Iba-1. NN: Normobaric Normoxia group; HH: Hypobaric Hypoxia group; HH+Triol: Hypobaric Hypoxia with Triol administration group; HH+PROG: Hypobaric Hypoxia with progesterone administration group. One-way ANOVA analysis and Dunnutt's t test were used to perform statistical tests, and in the latter each group was compared with the HH group, ***, p<0.001.
# The thickness of paraffin sections was 5 μm. For fresh paraffin sections, the sections were dried at 37° C. overnight and then dried at 55° C. for 30 minutes. The sections were quickly placed in xylene for dewaxing. After fully dewaxing with xylene for 10 min for 3 times, absolute ethanol-95% ethanol-90% ethanol-80% ethanol-70% ethanol-50% ethanol-ddH2O were successively used for gradient rehydration. After rehydration, the sections were placed in EDTA antigen repair solution for microwave high temperature repair. After the repair was completed, it was allowed naturally cool down to room temperature. […] NIS-Elements Analysis software was used to analyze the fluorescence intensity of confocal images, which was then normalized with the fluorescence intensity per unit area according to the built-in scale. […]
smiles,measurement,setting,value
"C[C@@]12CCCC1C1C[C@@H](O)[C@@]3(O)C[C@@H](O)CC[C@]3(C)C1CC2 (stereo partly drawn) [Triol, 5α-androst-3β,5,6β-triol]",number of cells in the activation-like morphology (microglia),[1]; FIG. 2,decreased
same,expression of Iba-1,"[1]; immunohistochemistry, FIG. 2B",decreased significantly
same,down-regulation of CD163 expression caused by acute hypobaric hypoxia,[2],significantly restored
